Tests used:
[1] = test system: Nitrotyrosine, iNOS, MPO, COX-2, Bax and Bcl-2; assay: SCI: immunohistochemical localization of nitrotyrosine, iNOS, MPO, COX-2, Bax and Bcl-2; conditions: ICI 182,780 = co-administration with 17β-estradiol
Experimental: A longitudinal incision was made on the midline of the back, exposing the paravertebral muscles. These muscles were dissected away exposing T5-T8 vertebrae. […] Following surgery, 1 ml of saline was administered subcutaneously in order to replace the blood volume lost during surgery. During the surgery and recovery from anesthesia, the mice were placed on a warm heating pad and covered with a warm towel. […] Food and water were provided to the mice ad libitum. During this time period, the animals' bladders were manually voided twice a day until the mice were able to regain normal bladder function. In all injured groups, the spinal cord was compressed for 1 min. Sham-injured animals were only subjected to laminectomy.
(§2) At different time points (see FIG. 30), the mice (n=10 from each group for each of the 3 time points) were sacrificed in order to evaluate the various parameters as described below.
At 24 h after SCI, the tissues were fixed in 10% (w/v) PBS-buffered formaldehyde and 8-μm sections were prepared from paraffin embedded tissues. After deparaffinization, endogenous peroxidase was quenched with 0.3% (v/v) hydrogen peroxide in 60% (v/v) methanol for 30 min. The sections were permeabilized with 0.1% (w/v) Triton X-100 in PBS for 20 min. Non-specific adsorption was minimized by incubating the section in 2% (v/v) normal goat serum in PBS for 20 min. Endogenous biotin or avidin binding sites were blocked by sequential incubation for 15 min with biotin and avidin (DBA), respectively. Sections were incubated overnight with antinitrotyrosine rabbit polyclonal antibody (Upstate; 1:500 in PBS, v/v), with anti-iNOS polyclonal antibody rat (1:500 in PBS, v/v), anti-COX-2 monoclonal antibody (1:500 in PBS, v/v), anti-Bax rabbit polyclonal antibody (Santa Cruz Biotechnology, Inc., Santa Cruz, Calif.; 1:500 in PBS, v/v), or with anti-Bcl-2 polyclonal antibody rat (Santa Cruz Biotechnology, Inc., Santa Cruz, Calif.; 1:500 in PBS, v/v), or with anti-MPO polyclonal antibody (Santa Cruz Biotechnology, Inc., Santa Cruz, Calif.; 1:500 in PBS, v/v). Sections were washed with PBS, and incubated with secondary antibody. Specific labeling was detected with a biotin-conjugated goat anti-rabbit IgG and avidin-biotin peroxidase complex (DBA) and counterstained whith nuclear fast red. To verify the binding specificity for nitrotyrosine, iNOS, COX-2, Bax, and Bcl-2, some sections were also incubated with only the primary antibody (no secondary) or with only the secondary antibody (no primary).

Bax and Bcl-2 = assay: SCI: Western blot analysis for Bax and Bcl-2; assay type: in vivo, mouse; conditions: spinal cord, 24 hours after SCI; ICI 182,780 = co-administration with 17β-estradiol
Experimental: (§1) Mice were anaesthetized using chloral hydrate (400 mg/kg body weight) (Genovese 2006). A longitudinal incision was made on the midline of the back, exposing the paravertebral muscles. These muscles were dissected away exposing T5-T8 vertebrae. The spinal cord was exposed via a four-level T6-T7 laminectomy and SCI was produced by extradural compression using an aneurysm clip with a closing force of 24 g. Following surgery, 1 ml of saline was administered subcutaneously in order to replace the blood volume lost during surgery. During the surgery and recovery from anesthesia, the mice were placed on a warm heating pad and covered with a warm towel. The mice were singly housed in a temperature-controlled room at 27° C. and survival was measured over a period of 10 days. Food and water were provided to the mice ad libitum. […]
For Western blot analysis, 70 μg protein of lysates were mixed with gel loading buffer (50 mM Tris, 10% (w/v), sodium dodecyl sulphate (SDS), 10% (w/v) glycerol, 10% (v/v) 2- mercaptoethanol, 2 mg/ml bromophenol), boiled for 5 min, and subjected to SDSPAGE (12% polyacrylamide). […] The protein bands of Bax (23˜kDa), or Bcl -2 (26˜kDa) on x-ray film were scanned and densitometrically analyzed with a model GS-700 imaging densitometer (Bio-Rad Laboratories). […]

[2] = test system: Myeloperoxidase (MPO) activity; assay: SCI: myeloperoxidase activity (neutrophil infiltration); assay type: in vivo, mouse; conditions: SCI mice, 24 hours; dosing as E50; ICI 182,780 = co-administration with 17β-estradiol
Experimental: Mice were anaesthetized using chloral hydrate (400 mg/kg body weight) (Genovese 2006). A longitudinal incision was made on the midline of the back, exposing the paravertebral muscles. These muscles were dissected away exposing T5-T8 vertebrae. The spinal cord was exposed via a four-level T6-T7 laminectomy and SCI was produced by extradural compression using an aneurysm clip with a closing force of 24 g. Following surgery, 1 ml of saline was administered subcutaneously in order to replace the blood volume lost during surgery. During the surgery and recovery from anesthesia, the mice were placed on a warm heating pad and covered with a warm towel. The mice were singly housed in a temperature-controlled room at 27° C. and survival was measured over a period of 10 days. Food and water were provided to the mice ad libitum. During this time period, the animals' bladders were manually voided twice a day until the mice were able to regain normal bladder function. In all injured groups, the spinal cord was compressed for 1 min. […] Myeloperoxidase (MPO) activity, an indicator of PMN accumulation, was determined as previously described (Mullane 1985) 24 h after SCI. […] The rate of change in absorbance was measured spectrophotometrically at 650 nm. MPO activity was defined as the quantity of enzyme degrading 1 μmol of peroxide per minute at 37° C. and was expressed in milliunits/g of wet tissue.

Adult male CD1 mice = assay: Spinal cord injury (SCI): light microscopy, histological score, Luxol fast blue; assay type: in vivo, mouse
Experimental: as §1, with “days.” for “days. Food and water were provided to the mice ad libitum.”
The segments of each spinal cord were evaluated by an experienced histopathologist (RO). Damaged neurons were counted and the histopathologic changes of the gray matter were scored on a 6-point scale (Sirin 2000): 0, no lesion observed, 1, gray matter contained 1 to 5 eosinophilic neurons; 2, gray matter contained 5 to 10 eosinophilic neurons; 3, gray matter contained more than 10 eosinophilic neurons; 4, small infarction (less than one third of the gray matter area); 5, moderate infarction; (one third to one half of the gray matter area); 6, large infarction (more than half of the gray matter area). […]

[3] = test system: TNF-α, IL-1β, IL-6, MCP-1; assay: SCI: quantitative real time PCR of cytokines and chemokines in spinal cord; conditions: SCI mice, 24 h; dosing as E50; ICI 182,780 = co-administration with 17β-estradiol
Experimental: A longitudinal incision was made on the midline of the back, exposing the paravertebral muscles. These muscles were dissected away exposing T5-T8 vertebrae. […] Following surgery, 1 ml of saline was administered subcutaneously in order to replace the blood volume lost during surgery. During the surgery and recovery from anesthesia, the mice were placed on a warm heating pad and covered with a warm towel. The mice were singly housed in a temperature-controlled room at 27° C. and survival was measured over a period of 10 days. Food and water were provided to the mice ad libitum. During this time period, the animals' bladders were manually voided twice a day until the mice were able to regain normal bladder function. In all injured groups, the spinal cord was compressed for 1 min. Sham-injured animals were only subjected to laminectomy.
as §2
Total cellular RNA was isolated from the aqueous phase then the levels of IL-α, TNF-α, MCP-1, IL-6 gene products were determined by Real Time PCR. The amount of each PCR product of gene target was normalized to Glyceraldehyde-3-phosphate dehydrogenase (GAPDH). The RNA extracted from spinal cord of individual mice was reverse trascripted into first strand cDNA with Random Hexamers and purified Avian Myeloblastosis Virus Reverse Transcriptase (Takara, Japan) in 20 ml of reaction after a DNAse treatment and stored at −80° C. until use. Primers pair for each cytokine was designed using the software Oligo (Molecular Biology Insights, Cascade, Colo., USA). The PCR reactions were performed using the following cycle conditions: a denaturation step for 15 minutes at 95° C. and 40 cycles of 30 seconds denaturation at 94° C., 30 seconds annealing (TNF-á 61° C., IL-6 54° C., IL-1β 61° C., MCP-1 54° C., GADPH 56° C.), 15 sec at 72° C. and 7 minutes of final extension at 72° C. The PCR products were visualized by electrophoresis on agarose gel 2% stained by ethidium bromide. The purified PCR products were cloned into a plasmid vector, transformed into the E. coli TOP 10 (Invitrogen) and purified with Turbo Kit (QBIOgene, Calif., USA). The recombinant plasmid was linearized upstream the target sequence using the restriction endonuclease PmeI (Fermentas, Canada). Tenfold dilutions of recombinant plasmid from 10^9 copies down to 10^1 copies were used as standards. The real time PCR assay was developed and evaluated on the Rotor-Gene 3000 system (Corbett Research, Australia). […] The signal was acquired on the FAM channel (multichannel machine) (source, 470 nm; detector, 510 nm; gain set to 5) with the fluorescence reading taken at the end of each 72° C. step. […]

[4] = SCI mice, 24 hours, dosing as E50
[5] = spinal cord, 24 hours after SCI

C[C@]12CC[C@@H]3c4ccc(O)cc4C[C@@H](CCCCCCCCC[S+]([O-])CCCC(F)(F)C(F)(F)F)[C@H]3[C@@H]1CC[C@@H]2O (stereo partly drawn) [ICI 182,780]
immunohistological staining for COX-2 [1, 4]: significantly blocked the effect of the 17β-estradiol on COX-2 expression
immunohistological staining for iNOS [1, 4]: significantly blocked the effect of the 17β-estradiol on iNOS expression
immunohistological staining for nitrotyrosine [1, 4]: significantly blocked the effect of the 17β-estradiol
staining for MPO [1, 4]: significantly blocked the effect of the 17β-estradiol on the MPO
immunohistological staining for Bax [1, 5]: significantly blocked the effect of the 17β-estradiol
immunohistological staining for Bcl-2 [1, 5]: significantly blocked the effect of the 17β-estradiol
Bax expression (Western blot) (Bax and Bcl-2): significantly blocked the effect of the 17β-estradiol on Bax expression
Bcl-2 expression (Western blot) (Bax and Bcl-2): significantly blocked the effect of the 17β-estradiol on the Bcl2 expression
MPO activity in the spinal cord (neutrophil infiltration) [2]: significantly blocked the effect of the 17β-estradiol on the neutrophils infiltration
histological alteration of spinal cord (H&E, histological score) (Adult male CD1 mice; 24 hours after injury, 17β-estradiol 300 μg/kg s.c. 1 h before, 3 h and 6 h after SCI, ICI 182,780 rows: 500 μg/kg s.c. 1 hour before 17β-estradiol (co-administration)): significantly blocked the effect of the 17β-estradiol on the histological alteration
myelin structure (Luxol fast blue staining) (Adult male CD1 mice; 24 hours, dosing as E50, ICI 182,780 = co-administration with 17β-estradiol): significantly blocked the effect of the 17β-estradiol
tissue levels of IL-1β (mRNA) [3]: significantly blocked the effect of the 17β-estradiol
tissue levels of IL-6 (mRNA) [3]: significantly blocked the effect of the 17β-estradiol
tissue levels of MCP-1 (mRNA) [3]: significantly blocked the effect of the 17β-estradiol
tissue levels of TNF-α (mRNA) [3]: significantly blocked the effect of the 17β-estradiol
